This note sets out measurements from patent publication US20240316023A1, “BENEDIN, PIPERIDINE, 2-BENZHYDRYL-3-HYDROXY-N-METHYL-, HYDROCHLORIDE AND DERIVATIVES THEREOF FOR USE IN TREATING KLEINE-LEVIN SYNDROME” (priority 2021, published 2024).

The target in the experiment is T1, M1 (h) (antagonist radioligand) (Homo sapiens, UniProt P11229).
T1 construct: CEREP (Eurofins, France), contract panel
T1 sequence (P11229 1-460): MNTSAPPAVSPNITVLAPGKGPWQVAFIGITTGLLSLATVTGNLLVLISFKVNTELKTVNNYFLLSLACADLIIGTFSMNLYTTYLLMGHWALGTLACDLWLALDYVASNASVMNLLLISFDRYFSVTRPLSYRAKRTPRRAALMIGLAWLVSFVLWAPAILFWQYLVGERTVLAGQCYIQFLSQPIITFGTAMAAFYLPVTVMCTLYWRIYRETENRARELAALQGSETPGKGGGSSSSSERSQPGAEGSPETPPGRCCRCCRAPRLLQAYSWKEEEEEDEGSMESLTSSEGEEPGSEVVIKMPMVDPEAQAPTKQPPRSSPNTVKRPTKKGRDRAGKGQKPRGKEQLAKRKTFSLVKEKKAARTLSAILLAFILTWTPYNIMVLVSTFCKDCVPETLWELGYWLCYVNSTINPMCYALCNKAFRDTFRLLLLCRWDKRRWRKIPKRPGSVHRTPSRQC
Briefly: Radioligand binding panel (Eurofins/CEREP), M1. Particulars: 10^−5 M; % inhibition of control specific binding; read-out: % Inhibition at 10^−5M Benedin. How it is done: Benedin was tested at 10^−5 M, calculated as a % inhibition of control specific binding of a radioactively labeled ligand specific for each target.
This binding profile panel was broadly defined with roughly an equal number of selective, central and peripheral therapeutically relevant targets, including native animal tissues, radioligands and specific enzymes involved in cell cycle regulation in accordance with Eurofins Standard Operating Procedure.
For radioligand binding experiments, the half maximal inhibitory concentration (IC50) and the half maximal effective concentration (EC50) values were determined (via computer software) by nonlinear regression analysis of the competition curves using Hill equation curve fitting. The inhibition constants (Ki) were calculated using the Cheng-Prusoff equation (Ki=IC50/(1+(L/KD)), where L is the concentration of radioligand in the assay, and KD is the affinity of the radioligand for the receptor.^60
The results are expressed as a % control specific binding ([measured specific binding/control specific binding]×100) and as a % inhibition of control specific binding (100−[(measured specific binding/control specific binding)×100] obtained in the presence of the test compounds. […]

Turning to `CN1CCCC(O)C1C(c1ccccc1)c1ccccc1` (stereo not shown) [Benedin, 2-benzhydryl-3-hydroxy-N-methyl-piperidine], the inhibition (commonly the share of the control response that was lost under treatment) at 10 µM worked out at 75%.
